Key:
[1] = tested on: EBOV infection of Vero E6 cells; type: cell-based, Ebola virus
[2] = tested on: Ebola GP in lipid rafts of 293T cells; type: cell-based, human

Compound	general cytotoxic effect, trypan blue exclusion (Vero E6 cells)	EBOV infection, viral titer 48 hour post infection [1]	virus production after recovery from drug treatment [1]	association of Ebola GP with rafts (detergent insoluble fraction) [2]
CCCCC[C@@H](O)[C@H]1C(=O)O[C@H](C)[C@@H](O)/C=C/C=C/C=C/C=C/C=C(\C)[C@@H](O)C[C@H](O)C[C@H](O)C[C@H](O)C[C@H](O)C[C@H](O)C[C@@H]1O [filipin]	viable	significant inhibition of EBOV infection	could produce large amounts of virus	–
methyl-β-cyclodextrin	–	–	–	almost complete removal of Ebola GP from rafts
nystatin	viable	–	–	–

— patent US7682618B2 (priority 2001, dated 2010)
